Read-outs that look alike come from different tables or passages of the source. Marks after values point to notes of the source that are not given here.
What was measured:
A431 cells = assay: Tumor cell proliferation in vitro; assay type: cell-based, human; conditions: A431; read-out: IC50, proliferation
RET = RET (Homo sapiens, UniProt P07949); assay: Tyrosine kinase inhibition; assay type: biochemical
[1] = test system: human esophageal cancer ECA-109 tumors; assay: ECA-109 tumors in nude mice; assay type: in vivo
BTK = BTK (Homo sapiens, UniProt Q06187); assay: Tyrosine kinase inhibition; assay type: biochemical
Chain of BTK (Q06187 whole entry): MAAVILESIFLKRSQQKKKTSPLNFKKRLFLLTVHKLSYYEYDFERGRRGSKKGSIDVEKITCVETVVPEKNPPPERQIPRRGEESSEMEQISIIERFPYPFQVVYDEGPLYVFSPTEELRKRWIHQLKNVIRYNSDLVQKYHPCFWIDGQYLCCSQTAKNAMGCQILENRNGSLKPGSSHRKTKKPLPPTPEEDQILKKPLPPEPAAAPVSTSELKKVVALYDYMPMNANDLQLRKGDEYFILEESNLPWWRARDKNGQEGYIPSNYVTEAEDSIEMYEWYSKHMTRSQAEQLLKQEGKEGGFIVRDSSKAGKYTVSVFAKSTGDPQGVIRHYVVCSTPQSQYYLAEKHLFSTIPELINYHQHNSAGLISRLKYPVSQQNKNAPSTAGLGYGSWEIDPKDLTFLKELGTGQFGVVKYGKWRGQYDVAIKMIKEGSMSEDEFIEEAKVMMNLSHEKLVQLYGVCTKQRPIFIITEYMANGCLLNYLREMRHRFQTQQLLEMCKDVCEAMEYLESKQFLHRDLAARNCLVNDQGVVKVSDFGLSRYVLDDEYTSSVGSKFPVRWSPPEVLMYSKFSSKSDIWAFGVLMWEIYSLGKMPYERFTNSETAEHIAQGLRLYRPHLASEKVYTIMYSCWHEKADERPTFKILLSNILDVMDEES

BEL-7402 cells = assay: Tumor cell proliferation in vitro; assay type: cell-based; conditions: BEL-7402
PDGFRα = PDGFRα (Homo sapiens, UniProt P16234); assay: Tyrosine kinase inhibition; assay type: biochemical
Chain of PDGFRα (P16234 24-1089): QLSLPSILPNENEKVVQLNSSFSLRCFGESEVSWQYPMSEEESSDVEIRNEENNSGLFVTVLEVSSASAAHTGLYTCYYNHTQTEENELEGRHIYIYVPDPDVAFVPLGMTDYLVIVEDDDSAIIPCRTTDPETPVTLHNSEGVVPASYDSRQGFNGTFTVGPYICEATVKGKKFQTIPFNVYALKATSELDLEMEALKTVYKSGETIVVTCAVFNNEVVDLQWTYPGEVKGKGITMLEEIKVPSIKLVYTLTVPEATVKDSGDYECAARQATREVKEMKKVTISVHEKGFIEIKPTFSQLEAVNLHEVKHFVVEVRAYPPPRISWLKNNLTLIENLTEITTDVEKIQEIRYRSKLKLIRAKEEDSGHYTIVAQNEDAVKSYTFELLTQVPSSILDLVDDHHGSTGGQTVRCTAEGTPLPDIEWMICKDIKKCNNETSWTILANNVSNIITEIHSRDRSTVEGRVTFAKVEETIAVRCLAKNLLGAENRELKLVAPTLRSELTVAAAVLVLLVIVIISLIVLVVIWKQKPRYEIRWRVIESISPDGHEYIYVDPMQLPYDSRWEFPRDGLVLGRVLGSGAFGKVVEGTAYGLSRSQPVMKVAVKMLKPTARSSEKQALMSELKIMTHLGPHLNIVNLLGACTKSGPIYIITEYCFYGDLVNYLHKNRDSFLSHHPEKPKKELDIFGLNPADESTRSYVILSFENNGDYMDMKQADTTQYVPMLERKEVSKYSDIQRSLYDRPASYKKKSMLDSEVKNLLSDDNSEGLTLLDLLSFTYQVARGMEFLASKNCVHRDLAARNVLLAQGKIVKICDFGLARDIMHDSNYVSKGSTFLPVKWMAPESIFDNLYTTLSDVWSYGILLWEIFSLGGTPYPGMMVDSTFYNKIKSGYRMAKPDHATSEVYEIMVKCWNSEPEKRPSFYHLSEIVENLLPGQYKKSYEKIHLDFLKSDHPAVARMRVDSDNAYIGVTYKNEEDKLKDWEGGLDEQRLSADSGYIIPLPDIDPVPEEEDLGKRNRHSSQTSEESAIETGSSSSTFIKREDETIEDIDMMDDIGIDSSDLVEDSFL

Plasma protein binding = assay type: in vitro ADME; conditions: humans
[2] = test system: RET fusion-positive NSCLC; assay: Tumor response by RECIST 1.1 (ORR, DCR, DOR, PFS), phase 1/2; assay type: in vivo, human; conditions: for Best response: Complete response / Best response: Not evaluable / Best response: Partial response / Best response: Progressive disease / Best response: Stable disease: ERS, investigator-assessed RECIST 1.1; for PFS: patient with previous RET-TKI treatment
Method: Treatment-emergent adverse events (TEAEs) were documented during the entire study period. The predefined adverse event of special interest (AESI) was ≥ grade 3 prolonged QT interval. Tumor imaging was performed using contrast-enhanced computed tomography or magnetic resonance imaging at screening, Day 28 of the first cycle, then approximately every eight weeks till the end of the study for phase 1; in phase 2, imaging was scheduled at screening, and every eight weeks during the first 40 weeks, followed by every 12 weeks for the rest of the study period. RECIST 1.1 was used by the independent review committee or investigators for assessment of tumor response. After the original assessment, a repeated assessment was required around four weeks later to confirm a complete or partial response.
The primary endpoints of phase 1 were to investigate the MTD, dose-limiting toxicities, and the incidence and severity of TEAEs. Each TEAE was graded according to the Common Terminology Criteria for Adverse Events (CTCAE, version 5.0) and coded by Medical Dictionary for Regulatory Activities (MedDRA, version 21.0). The secondary endpoints included calculating PK parameters, assessing the ORR and DCR at the recommended dose by investigators as per RECIST 1.1. The exploratory endpoint was PFS.
The primary endpoint of phase 2 was the independent review committee evaluated ORR using RECIST 1.1. The secondary endpoints included investigators assessed ORR; DCR, PFS, and DOR by the independent review committee and investigators; overall survival and TEAEs. Each TEAE was graded according to CTCAE version 5.0 and coded by MedDRA (version 24.0). The phase 2 trial is ongoing; not all endpoints are reported in this paper.
The full analysis set consisted of all patients who had administered at least one dose of HA121-28 and was used to calculate the baseline characteristics, OS, and PFS results. The safety set included all patients who had administered at least one dose of the HA121-28 and had at least one safety-related observation. This population was used for analysis of TEAEs. The efficacy evaluable set consisted of patients who had administered at least one dose of HA121-28 and completed at least one efficacy assessment following study treatment. This population was used to calculate the ORR, DOR, and DCR. In addition, the ORRs for subgroup analyses, including age ( < 60, ≥60), ECOG PS (0 or 1), gender (male or female), prior treatment with TKIs (yes or no), brain or liver metastasis (yes or no), were also calculated. The plasma drug concentration-time profile was characterized using PK concentration set that included patients who had administered at least one dose of HA121-28 and had at least one measurable plasma concentration of HA121-28. The PK parameter set was used to calculate PK parameters, which consisted of patients who had administered at least one dose of HA121-28 with at least one valid PK parameter. ORR and DCR were described using the Clopper-Pearson method with two-sided 95% confidence intervals (CIs). PFS and DOR were assessed using the Kaplan-Meier method, including an estimate of the median, along with corresponding 95% CIs. Statistical analyses of clinical outcomes were conducted by SAS (version 9.4 or later) and R software 4.1.0 for genomic DNA from pre-treatment tumor tissue (http://cran.r-project.org).

8305C cells = assay: Tumor cell proliferation in vitro; assay type: cell-based
EGFR = EGFR (Homo sapiens, UniProt P00533); assay: Tyrosine kinase inhibition; assay type: biochemical
Chain of EGFR (P00533 25-1210): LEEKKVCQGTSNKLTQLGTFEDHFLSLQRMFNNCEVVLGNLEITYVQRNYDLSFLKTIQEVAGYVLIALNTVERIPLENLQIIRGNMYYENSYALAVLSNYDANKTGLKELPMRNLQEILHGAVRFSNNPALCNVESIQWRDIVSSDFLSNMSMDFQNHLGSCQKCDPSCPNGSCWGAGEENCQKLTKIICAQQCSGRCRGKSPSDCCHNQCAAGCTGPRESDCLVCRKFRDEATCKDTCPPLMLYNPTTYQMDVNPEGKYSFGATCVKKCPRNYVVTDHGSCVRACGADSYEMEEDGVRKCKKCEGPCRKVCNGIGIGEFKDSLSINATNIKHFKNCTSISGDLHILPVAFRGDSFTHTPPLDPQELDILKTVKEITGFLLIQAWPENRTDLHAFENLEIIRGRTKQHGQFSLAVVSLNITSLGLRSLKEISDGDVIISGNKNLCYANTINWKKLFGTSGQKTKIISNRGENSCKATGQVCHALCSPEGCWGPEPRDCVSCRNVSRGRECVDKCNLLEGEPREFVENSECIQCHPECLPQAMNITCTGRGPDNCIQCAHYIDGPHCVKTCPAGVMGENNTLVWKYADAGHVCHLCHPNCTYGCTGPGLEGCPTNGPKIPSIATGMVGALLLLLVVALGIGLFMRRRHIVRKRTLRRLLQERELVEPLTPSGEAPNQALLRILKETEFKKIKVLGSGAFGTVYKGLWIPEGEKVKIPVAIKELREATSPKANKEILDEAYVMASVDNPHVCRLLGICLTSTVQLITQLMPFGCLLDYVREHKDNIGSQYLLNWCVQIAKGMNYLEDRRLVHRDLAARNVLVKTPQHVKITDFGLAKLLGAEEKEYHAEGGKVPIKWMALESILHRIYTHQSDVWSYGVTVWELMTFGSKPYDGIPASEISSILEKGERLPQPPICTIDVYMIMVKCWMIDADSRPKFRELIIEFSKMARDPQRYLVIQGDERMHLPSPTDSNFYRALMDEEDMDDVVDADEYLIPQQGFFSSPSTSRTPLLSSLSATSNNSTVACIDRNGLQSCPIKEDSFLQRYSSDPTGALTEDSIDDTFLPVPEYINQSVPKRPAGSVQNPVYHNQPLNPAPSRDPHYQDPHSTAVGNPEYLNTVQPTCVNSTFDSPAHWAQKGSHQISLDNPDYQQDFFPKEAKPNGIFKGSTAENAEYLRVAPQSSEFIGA

[3] = RET fusion-positive NSCLC, ≥450 mg q.d.

Chain of RET (P07949 29-1114): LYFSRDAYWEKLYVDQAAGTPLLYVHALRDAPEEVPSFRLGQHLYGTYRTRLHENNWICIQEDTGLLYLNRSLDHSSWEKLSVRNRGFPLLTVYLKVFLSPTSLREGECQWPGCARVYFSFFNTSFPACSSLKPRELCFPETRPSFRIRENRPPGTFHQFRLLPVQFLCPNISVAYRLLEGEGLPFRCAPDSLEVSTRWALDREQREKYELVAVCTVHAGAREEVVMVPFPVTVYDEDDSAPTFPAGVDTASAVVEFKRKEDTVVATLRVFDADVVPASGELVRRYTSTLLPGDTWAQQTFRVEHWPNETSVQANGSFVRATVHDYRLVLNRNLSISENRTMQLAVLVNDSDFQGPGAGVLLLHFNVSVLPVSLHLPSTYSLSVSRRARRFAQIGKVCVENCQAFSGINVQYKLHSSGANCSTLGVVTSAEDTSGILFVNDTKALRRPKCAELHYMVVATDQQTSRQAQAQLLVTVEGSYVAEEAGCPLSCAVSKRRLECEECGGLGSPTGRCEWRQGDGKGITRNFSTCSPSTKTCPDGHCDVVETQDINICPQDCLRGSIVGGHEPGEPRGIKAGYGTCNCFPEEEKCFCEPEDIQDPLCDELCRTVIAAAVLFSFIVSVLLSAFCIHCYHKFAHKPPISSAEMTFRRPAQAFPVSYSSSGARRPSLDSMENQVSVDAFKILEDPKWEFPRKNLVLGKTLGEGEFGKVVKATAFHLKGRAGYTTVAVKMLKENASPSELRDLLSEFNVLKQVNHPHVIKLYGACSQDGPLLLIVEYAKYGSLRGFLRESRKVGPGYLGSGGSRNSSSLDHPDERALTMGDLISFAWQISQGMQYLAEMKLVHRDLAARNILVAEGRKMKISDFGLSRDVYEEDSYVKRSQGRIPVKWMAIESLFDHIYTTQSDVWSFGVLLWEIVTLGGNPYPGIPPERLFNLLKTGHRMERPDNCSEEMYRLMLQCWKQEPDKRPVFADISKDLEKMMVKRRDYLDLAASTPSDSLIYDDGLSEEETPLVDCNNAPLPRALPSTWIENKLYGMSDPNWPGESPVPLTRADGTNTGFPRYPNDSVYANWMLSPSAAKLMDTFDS

SMILES: COc1cc2c(Nc3ccc(Br)cc3F)ncnc2cc1OCCCCN(C)C.Cl.Cl [HA121-28, N-(4-bromo-2-fluorophenyl)-7-(4-(dimethylamino)butoxy)-6-methoxy quinazolin-4-amine dihydrochloride]
- IC50 (A431 cells): 0.775 ± 0.0767 µM
- IC50 (RET): 0.00872 µM
- RTV ±SD ([1]; 12.5 mg/kg): 7.0±2.8
- T/C ([1]; 12.5 mg/kg): 68.6%
- Terminal Tumor Volume ([1]; 12.5 mg/kg): 1,684.6±1,034.3 mm^3
- RTV ±SD ([1]; 25 mg/kg): 3.1±1.6
- T/C ([1]; 25 mg/kg): 29.8%
- Terminal Tumor Volume ([1]; 25 mg/kg): 693.5±538.6*^▲ mm^3
- RTV ±SD ([1]; 50 mg/kg): 2.2±0.4
- T/C ([1]; 50 mg/kg): 21.6%
- Terminal Tumor Volume ([1]; 50 mg/kg): 491.8±77.4** mm^3
- IC50 (BTK): 0.446 µM
- IC50 (BEL-7402 cells; read-out: IC50): 10 to 100 µM
- IC50 (BEL-7402 cells; read-out: IC50, proliferation): 9.91 ± 0.202 µM
- IC50 (PDGFRα): 0.0587 µM
- plasma protein binding rate (Plasma protein binding): 90.1±1.05%
- tumor response ([2]; 73 patients with non-RET fusion tumors, phase 1 dose expansion): no response
- confirmed ORR (investigator-assessed) ([2]; 97 RET fusion-positive NSCLC patients, ≥450 mg q.d.): 26.8%
- Best response: Complete response ([2]; All (N=97)): 0 No. (%)
- Best response: Not evaluable ([2]; All (N=97)): 4 (4.1) No. (%)
- Best response: Partial response ([2]; All (N=97)): 26 (26.8) No. (%)
- Best response: Progressive disease ([2]; All (N=97)): 23 (23.7) No. (%)
- Best response: Stable disease ([2]; All (N=97)): 44 (45.4) No. (%)
- Best response: Complete response ([2]; CCDC6 (N=15)): 0 No. (%)
- Best response: Not evaluable ([2]; CCDC6 (N=15)): 1 (6.7) No. (%)
- Best response: Partial response ([2]; CCDC6 (N=15)): 7 (46.7) No. (%)
- Best response: Progressive disease ([2]; CCDC6 (N=15)): 1 (6.7) No. (%)
- Best response: Stable disease ([2]; CCDC6 (N=15)): 6 (40.0) No. (%)
- confirmed ORR ([2]; CCDC6-RET fusion patients): 46.7%
- median DOR ([2]; CCDC6-RET fusion patients): 14.0 months
- median PFS ([2]; CCDC6-RET fusion patients): 14.9 months
- Best response: Complete response ([2]; KIF5B (N=71)): 0 No. (%)
- Best response: Not evaluable ([2]; KIF5B (N=71)): 2 (2.8) No. (%)
- Best response: Partial response ([2]; KIF5B (N=71)): 18 (25.4) No. (%)
- Best response: Progressive disease ([2]; KIF5B (N=71)): 21 (29.6) No. (%)
- Best response: Stable disease ([2]; KIF5B (N=71)): 30 (42.3) No. (%)
- confirmed ORR ([2]; KIF5B-RET fusion patients): 25.4%
- median DOR ([2]; KIF5B-RET fusion patients): 7.7 months
- median PFS ([2]; KIF5B-RET fusion patients): 5.5 months
- Best response: Complete response ([2]; Other (N=11)): 0 No. (%)
- Best response: Not evaluable ([2]; Other (N=11)): 1 (9.1) No. (%)
- Best response: Partial response ([2]; Other (N=11)): 1 (9.1) No. (%)
- Best response: Progressive disease ([2]; Other (N=11)): 1 (9.1) No. (%)
- Best response: Stable disease ([2]; Other (N=11)): 8 (72.7) No. (%)
- patients with shrinkage in tumor size ([2]; RET fusion-positive NSCLC (66 of 97)): 68.0%
- DCR [2, 3]: 72.2%
- median PFS [2, 3]: 5.5 months
- patients with partial response ([2]; TP53 wild-type group (5 out of 15)): 33.3%
- patients with partial response ([2]; concurrent TP53 mutation (1 out of 11)): 9.1%
- PFS ([2]; SD, dosing 176 days): 5.52 months
- PFS ([2]; confirmed PR, dosing 167 days): 5.36 months
- patients with partial response ([2]; phase 1, advanced RET fusion NSCLC with at least one efficacy evaluation, as of April 28, 2021): 7 of 17
- ORR ([2]; subgroup ECOG PS of 0): 35.5%
- ORR ([2]; subgroup age < 60): 30.9%
- ORR ([2]; subgroup with liver metastasis): 37.5%
- IC50 (8305C cells): 0.623 ± 0.0803 µM
- IC50 (EGFR): 0.0466 µM
